Publication PMC6934184, “Selective DNA-PKcs inhibition extends the therapeutic index of localized radiotherapy and chemotherapy” (The Journal of Clinical Investigation, 2019)

Molecular target: T1, MAP4K2 (GCK) (Homo sapiens, UniProt Q12851)
T1 construct: purchased Thermo Fisher Scientific (Life Technologies) SelectScreen
Experiment: SelectScreen Z'LYTE
Type: biochemical
How it was run: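 NU5455 was profiled across the SelectScreen Broad panel of kinase activity and binding assays. Z'LYTE reactions such as CSF1R ran at apparent Km ATP, while the Adapta CAMK1 assay used ATP listed as 10. Values are given as percent.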

T1 sequence (Q12851 whole entry): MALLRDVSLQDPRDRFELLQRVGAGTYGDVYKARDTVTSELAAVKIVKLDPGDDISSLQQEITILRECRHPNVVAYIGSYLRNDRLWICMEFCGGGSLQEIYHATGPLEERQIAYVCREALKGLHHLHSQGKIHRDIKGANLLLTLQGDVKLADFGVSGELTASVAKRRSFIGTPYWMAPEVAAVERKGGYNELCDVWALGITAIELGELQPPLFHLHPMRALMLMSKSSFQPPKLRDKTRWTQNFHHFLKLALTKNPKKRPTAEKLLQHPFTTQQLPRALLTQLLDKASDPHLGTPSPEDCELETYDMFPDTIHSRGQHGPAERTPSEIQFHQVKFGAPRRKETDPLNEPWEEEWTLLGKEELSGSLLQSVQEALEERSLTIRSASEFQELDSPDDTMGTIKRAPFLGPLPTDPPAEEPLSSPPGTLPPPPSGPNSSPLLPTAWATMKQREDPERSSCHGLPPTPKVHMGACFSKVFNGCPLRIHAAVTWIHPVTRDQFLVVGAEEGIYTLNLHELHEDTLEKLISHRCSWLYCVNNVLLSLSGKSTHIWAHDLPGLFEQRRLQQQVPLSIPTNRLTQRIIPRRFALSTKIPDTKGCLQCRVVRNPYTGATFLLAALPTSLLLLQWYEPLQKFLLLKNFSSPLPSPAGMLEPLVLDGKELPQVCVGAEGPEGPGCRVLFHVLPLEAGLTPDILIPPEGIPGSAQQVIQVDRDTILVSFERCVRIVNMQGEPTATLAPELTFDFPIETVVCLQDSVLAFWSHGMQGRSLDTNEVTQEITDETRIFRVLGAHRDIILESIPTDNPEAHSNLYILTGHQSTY

Compound: CN(C(=O)CN1CCOCC1)c1ccc2sc3c(-c4cccc5c(=O)cc(N6CC7CCC(C6)O7)oc45)cccc3c2c1 [NU5455]
- inhibition at 1 µM: 2.7%
